From patent publication US10208089B2, “Modulation of complement activity” (priority 2014, dated 2019) come the findings set out here.

For data set [1], the target named is T1, C5 (Homo sapiens, UniProt P01031). Briefly: Human hemolysis assay (RBC lysis assay using complete human sera). The data set is classed as cell-based. Conditions: inhibition of lysis of antibody-sensitized sheep erythrocytes, complete human sera. More on the design: with complete human sera (Complement Technology, Tyler Tex.) and polypeptides; tissue Complement Technology, Tyler Tex; host or cells: complete human serum.

Data set [2] deals with membrane attack complex (MAC). Briefly: Membrane attack complex (MAC) EIA on supernatant from human RBC hemolysis assay. It counts as biochemical. Conditions: hemolysis assay supernatant diluted 1:5; read-out: IC50, inhibition of formation of the MAC. As for the experimental part:
Supernatant from the hemolysis assay was diluted 1:5 and assayed for MAC levels.
C5 inhibitory activity was assessed by enzyme immunoassay (EIA). Inhibition of the production of C5a and the membrane attack complex (MAC) were measured by MicroVue EIA kits (Quidel Corporation, San Diego, Calif.).

For data set [3], the system named is C5a. Description: C5a EIA on supernatant from human RBC hemolysis assay. The data set is classed as biochemical. The following applies: hemolysis assay supernatant diluted 1:50; read-out: IC50, inhibition of formation of C5a. On the procedure: Levels of C5a correlate with complement activity and are therefore an indicator of the ability of the compounds tested to inhibit complement activity. Supernatant from the hemolysis assay was diluted 1:50 and assayed for C5a levels. […] As used herein, the term “IC50” refers to the half maximal inhibitory concentration, a value used to indicate the amount of the inhibitor needed to reduce a given reaction or process by half.
Inhibition of the production of C5a and the membrane attack complex (MAC) were measured by MicroVue EIA kits (Quidel Corporation, San Diego, Calif.).

In data set [4] the target is T1, C5. Briefly: Alternative human hemolysis assay using C5 depleted sera and purified human C5. More on the design: purchased Complement Technology, Tyler, Tex. It counts as cell-based. The following applies: antibody-sensitized sheep erythrocytes, 1.5% human C5 depleted sera and 0.5 nM purified human C5.
Data set [5] concerns primate C5 protein. Briefly: Ex vivo hemolysis assay on plasma samples from the cynomolgus PK study. It counts as in vivo, cynomolgus monkey.
From the text: Also shown are changes in hemolytic activity (squares) at the same time points.
Data set [6] deals with primate C5 protein. Description: Hemolysis assay with exogenous compound added to normal cynomolgus plasma. The data set is classed as cell-based, cynomolgus monkey.
Data set [7] can be described thus: Pharmacokinetic studies in rat (IV and SC). The following applies: male rats, SC 30 mg/kg, combined plasma concentrations of R3152 and R3201. As for the experimental part:
Left: Male Sprague-Dawley rats (n=3) were injected intravenously at a single 2 mg/kg dose. Blood samples were collected at indicated time points, processed into plasma, and analyzed for the indicated compound by LC-MS. […] […] Blood samples were collected at indicated time points, processed into plasma, and analyzed for the indicated compound by LC-MS.
Blood samples were collected at indicated time points, processed into plasma, and analyzed for the indicated compound by LC-MS. […] Blood samples were collected at indicated time points, processed into plasma, and analyzed for the indicated compound by LC-MS.

For data set [8] the following is noted: cynomolgus monkey, single 3 mg/kg IV.
A short description of data set [9]: in vivo. The following applies: male, cynomolgus monkey, iv, 3 mg/kg.
Data set [10] deals with T2, rat C5 (Rattus norvegicus, UniProt P08650).
T2 construct: from tissue; host or cells: plasma of dosed male rats
Briefly: Ex vivo hemolysis assays in the rat study. The following applies: for binding to rat C5 (in words): in vivo.

For data set [11], the target named is T1, C5. Description: Fluorescence polarization saturation binding of probe R3076 to C5. Conditions: read-out: equilibrium dissociation constant (KD). Set-up: purchased Complement Technology, Tyler, Tex. On the procedure: FP was used for screening competitive polypeptide inhibitors of the C5 protein. […] The BODIPY-TMR dye attached to the C-terminal lysine of the protein and the subsequent labeled probe was purified by HPLC.
Polarization was measured over time, until binding reached equilibrium. KD was determined using Graphpad Prism (using “Saturating Binding Curves, One Site—Specific Binding With Hill Slope” as the curve fit to determine KD). […] Based on this information, 25 nM and 50 nM concentrations for R3076 (SEQ ID NO: 40) and C5 protein, respectively, were chosen for use in the competition assay. These concentrations represented the approximate level of protein necessary for 95% probe binding to C5 protein.

SMILES strings stand for the structures. Starred links: 1 amine or outer side, 2 acyl side, 3 side chain; linkers in the order of their positions; H or OH if unused. Positions of bridges follow the written chain, without caps; N, C: chain ends. Non-standard residues stand in square brackets, D forms with d. Residues, ends and D or L forms follow the SMILES beside them. Trp(7-aza) = N[C@@H](Cc1c[nH]c2ncccc12)C(=O)O; mXylylene = c1cc(C[*:1])cc(C[*:2])c1; Phg = N[C@H](C(=O)O)c1ccccc1; NMeS = CN[C@@H](CO)C(=O)O; Nva = CCC[C@H](N)C(=O)O

T2 sequence (P08650 19-1681): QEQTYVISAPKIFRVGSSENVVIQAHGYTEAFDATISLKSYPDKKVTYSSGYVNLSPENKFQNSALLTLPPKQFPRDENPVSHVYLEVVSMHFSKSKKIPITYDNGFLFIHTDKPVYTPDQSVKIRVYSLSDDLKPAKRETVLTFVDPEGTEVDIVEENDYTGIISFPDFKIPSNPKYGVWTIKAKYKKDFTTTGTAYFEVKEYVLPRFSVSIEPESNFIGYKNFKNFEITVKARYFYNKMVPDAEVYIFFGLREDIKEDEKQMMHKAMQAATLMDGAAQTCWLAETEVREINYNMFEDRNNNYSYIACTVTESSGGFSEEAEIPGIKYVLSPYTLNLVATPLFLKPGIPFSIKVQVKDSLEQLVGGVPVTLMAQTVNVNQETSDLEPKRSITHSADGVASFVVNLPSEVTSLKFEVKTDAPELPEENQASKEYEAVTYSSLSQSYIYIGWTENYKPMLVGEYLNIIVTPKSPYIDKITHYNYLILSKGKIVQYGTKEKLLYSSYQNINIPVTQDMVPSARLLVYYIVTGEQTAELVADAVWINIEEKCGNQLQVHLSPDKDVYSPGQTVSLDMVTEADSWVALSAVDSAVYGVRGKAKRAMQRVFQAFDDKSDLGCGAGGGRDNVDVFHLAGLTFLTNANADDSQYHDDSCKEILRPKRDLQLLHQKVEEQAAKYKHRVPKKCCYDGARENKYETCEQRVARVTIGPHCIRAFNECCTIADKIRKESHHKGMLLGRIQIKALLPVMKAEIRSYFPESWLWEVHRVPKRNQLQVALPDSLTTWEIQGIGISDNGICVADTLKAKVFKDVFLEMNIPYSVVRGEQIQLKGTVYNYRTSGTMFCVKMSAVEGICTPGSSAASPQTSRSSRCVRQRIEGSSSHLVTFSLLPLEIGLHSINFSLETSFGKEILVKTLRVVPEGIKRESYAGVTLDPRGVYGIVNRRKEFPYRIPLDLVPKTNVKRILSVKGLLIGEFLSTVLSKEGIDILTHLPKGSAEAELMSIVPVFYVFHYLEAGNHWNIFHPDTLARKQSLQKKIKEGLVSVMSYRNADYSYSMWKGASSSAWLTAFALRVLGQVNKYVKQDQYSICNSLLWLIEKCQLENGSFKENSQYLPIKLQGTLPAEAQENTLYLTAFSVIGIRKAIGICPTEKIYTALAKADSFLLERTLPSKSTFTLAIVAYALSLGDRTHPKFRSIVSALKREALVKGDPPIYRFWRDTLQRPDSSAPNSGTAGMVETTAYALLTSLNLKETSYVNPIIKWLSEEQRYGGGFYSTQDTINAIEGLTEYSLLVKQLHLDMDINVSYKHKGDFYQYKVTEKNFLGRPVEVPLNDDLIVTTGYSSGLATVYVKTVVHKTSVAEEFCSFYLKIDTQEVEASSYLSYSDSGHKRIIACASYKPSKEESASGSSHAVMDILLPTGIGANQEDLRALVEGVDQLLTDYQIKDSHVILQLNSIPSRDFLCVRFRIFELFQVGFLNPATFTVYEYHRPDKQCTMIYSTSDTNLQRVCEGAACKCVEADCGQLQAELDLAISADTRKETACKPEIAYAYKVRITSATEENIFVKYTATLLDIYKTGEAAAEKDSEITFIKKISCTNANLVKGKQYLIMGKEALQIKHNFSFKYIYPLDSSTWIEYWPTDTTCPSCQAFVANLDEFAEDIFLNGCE
T1 sequence (P01031 19-1676): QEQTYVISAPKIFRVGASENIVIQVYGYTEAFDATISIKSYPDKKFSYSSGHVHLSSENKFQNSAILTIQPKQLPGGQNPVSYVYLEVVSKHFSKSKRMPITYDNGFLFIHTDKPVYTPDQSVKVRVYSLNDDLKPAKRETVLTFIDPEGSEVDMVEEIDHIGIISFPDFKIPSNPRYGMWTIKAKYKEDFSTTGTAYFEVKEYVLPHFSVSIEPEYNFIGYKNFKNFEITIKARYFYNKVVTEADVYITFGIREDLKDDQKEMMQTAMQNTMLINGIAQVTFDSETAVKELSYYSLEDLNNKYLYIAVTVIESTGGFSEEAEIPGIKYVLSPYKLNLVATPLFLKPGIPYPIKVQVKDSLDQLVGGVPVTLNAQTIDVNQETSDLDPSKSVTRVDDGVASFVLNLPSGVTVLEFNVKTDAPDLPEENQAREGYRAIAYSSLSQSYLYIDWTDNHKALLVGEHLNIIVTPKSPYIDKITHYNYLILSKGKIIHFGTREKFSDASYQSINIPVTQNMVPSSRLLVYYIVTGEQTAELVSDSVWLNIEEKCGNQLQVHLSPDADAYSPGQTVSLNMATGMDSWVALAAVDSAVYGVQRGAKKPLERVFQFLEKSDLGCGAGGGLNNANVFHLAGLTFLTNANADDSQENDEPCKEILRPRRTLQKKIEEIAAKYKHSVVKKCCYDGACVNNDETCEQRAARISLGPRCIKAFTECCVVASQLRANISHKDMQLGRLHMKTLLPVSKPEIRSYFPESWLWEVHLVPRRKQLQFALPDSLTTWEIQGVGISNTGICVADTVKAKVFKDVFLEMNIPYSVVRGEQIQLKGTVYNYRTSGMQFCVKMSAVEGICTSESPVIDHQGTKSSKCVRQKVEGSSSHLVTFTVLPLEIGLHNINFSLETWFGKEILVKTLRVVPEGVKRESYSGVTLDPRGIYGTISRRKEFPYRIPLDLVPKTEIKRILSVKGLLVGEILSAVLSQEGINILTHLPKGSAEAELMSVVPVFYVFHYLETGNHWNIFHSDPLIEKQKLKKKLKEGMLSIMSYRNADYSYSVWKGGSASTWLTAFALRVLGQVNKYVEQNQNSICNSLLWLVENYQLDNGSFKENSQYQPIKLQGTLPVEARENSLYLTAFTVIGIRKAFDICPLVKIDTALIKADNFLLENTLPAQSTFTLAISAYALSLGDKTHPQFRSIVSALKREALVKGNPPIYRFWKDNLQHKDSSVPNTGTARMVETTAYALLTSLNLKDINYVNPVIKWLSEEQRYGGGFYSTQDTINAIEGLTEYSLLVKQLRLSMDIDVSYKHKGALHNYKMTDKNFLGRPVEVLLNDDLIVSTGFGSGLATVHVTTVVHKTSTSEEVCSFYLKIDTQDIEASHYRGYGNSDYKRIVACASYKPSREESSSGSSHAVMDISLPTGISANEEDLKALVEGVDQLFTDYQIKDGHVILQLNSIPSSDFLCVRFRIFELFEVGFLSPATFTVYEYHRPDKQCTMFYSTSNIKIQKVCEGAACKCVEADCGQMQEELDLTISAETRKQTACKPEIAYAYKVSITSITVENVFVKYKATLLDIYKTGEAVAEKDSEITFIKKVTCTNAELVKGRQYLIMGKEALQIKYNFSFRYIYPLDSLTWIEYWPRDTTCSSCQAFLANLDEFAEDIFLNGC

As for `CCC[C@H](NC(=O)[C@@H]1CCCN1C(=O)[C@H](CCC)NC(=O)[C@@H]1CSCc2cccc(c2)CSC[C@H](NC(=O)[C@H](CCC)NC(C)=O)C(=O)N[C@@H](c2ccccc2)C(=O)N[C@@H]([C@@H](C)O)C(=O)N[C@@H](Cc2c[nH]c3ncccc23)C(=O)N[C@@H](CCC(=O)O)C(=O)N[C@@H](Cc2ccc(O)cc2)C(=O)N(C)[C@@H](CO)C(=O)N[C@@H](Cc2c[nH]cn2)C(=O)N1)C(N)=O` [Compound R3008, [mXylyl(2,10)]Ac-Nvl-C-Phg-T-azaTrp-E-Y-(N-Me)S-H-C-Nvl-P-Nvl-NH2] (Ac-[Nva]C[Phg]T[Trp(7-aza)]EY[NMeS]HC[Nva]P[Nva]-NH2; linker 2-10 via mXylylene), the IC50 in data set [1] is 97 nM; in data set [2], 33 nM; in data set [3], 54.5 nM.
Take `CCCCCCCCCCCCCCCC(=O)NCCCC[C@H](NC(=O)[C@@H](NC(=O)[C@@H]1CCCN1C(=O)[C@H](Cc1ccc(O)cc1)NC(=O)[C@H](CCC(=O)O)NC(=O)[C@H](Cc1c[nH]c2ncccc12)NC(=O)[C@H](Cc1ccc(O)cc1)NC(=O)[C@@H](NC(=O)[C@H](CC(=O)O)N(C)C(=O)[C@@H]1CSSCCC(=O)N[C@@H](C(C)C)C(=O)N[C@@H](CCC(=O)O)C(=O)N[C@@H](CCCNC(=N)N)C(=O)N[C@@H](Cc2ccccc2)C(=O)N1)C(C)(C)C)C1CCCCC1)C(=O)O` [Compound R3198, [cyclo(1,6)](desamino)C-V-E-R-F-C-(N-Me)D-Tbg-Y-azaTrp-E-Y-P-Chg-(Lys-C16)]: in data set [4], the IC50 was 142 nM.
Turning to `CCC[C@H](NC(=O)[C@@H](NC(=O)[C@@H]1CCCN1C(=O)[C@H](Cc1ccc(O)cc1)NC(=O)[C@H](CCC(=O)O)NC(=O)[C@H](Cc1c[nH]c2ncccc12)NC(=O)[C@H](Cc1ccc(O)cc1)NC(=O)[C@@H](NC(=O)[C@H](CC(=O)O)NC(=O)[C@@H]1CSCc2cccc(c2)CSC[C@H](NC(C)=O)C(=O)N[C@@H](C(C)C)C(=O)N[C@@H](CCC(=O)O)C(=O)N[C@@H](CCCNC(=N)N)C(=O)N[C@@H](Cc2ccccc2)C(=O)N1)C(C)(C)C)C1CCCCC1)C(N)=O` [Compound R3152, [mXylyl(1,6)]Ac-C-V-E-R-F-C-D-Tbg-Y-azaTrp-E-Y-P-Chg-Nvl-NH2], the “binding to primate C5 protein (in words)” value in data set [5] (cynomolgus monkey, in vivo) is “binds with high affinity”. Moreover, the “time after dosing at which hemolytic activity returned to normal levels” value in data set [5] (cynomolgus monkey, single 3 mg/kg IV) was found to be 48 h. Moreover, the “plasma concentration with clear inhibition of complement-mediated hemolysis” value in data set [5] (cynomolgus plasma diluted 1:100, activated sheep red blood cells) is given as > 200 ng/mL. In data set [6], this molecule displayed an IC50 of 2 to 20 ng/mL. In data set [7], the “bioavailability of dose, based on AUC” value was “approximately 65%”. Moreover, in [8], the initial distribution phase was < 1 h and the “time for which plasma drug levels were detectable” value is recorded as “up to 48 hours”. In [9], this molecule had an AUC(0-inf) of 23300 ± 2120 ng·h/mL, a Vd of 1.49 ± 0.152 L/kg, a clearance of 2.15 mL/min/kg and a half-life of 654 ± 48 min. In data set [9], the level at 48 h is < 100 ng/mL. Moreover, in data set [10], the “inhibitory activity in ex vivo hemolysis assays (in words)” value was “very little inhibitory activity” and the “binding to rat C5 (in words)” value is “do not bind”.
For the molecule `CCCCCCCCCCCCCCCC(=O)NCCCC[C@H](NC(=O)[C@@H](NC(=O)[C@@H]1CCCN1C(=O)[C@H](Cc1ccc(O)cc1)NC(=O)[C@H](CCC(=O)O)NC(=O)[C@H](Cc1c[nH]c2ncccc12)NC(=O)[C@H](Cc1ccc(O)cc1)NC(=O)[C@@H](NC(=O)[C@H](CC(=O)O)N(C)C(=O)[C@@H]1CC(=O)NCCCC[C@H](NC(C)=O)C(=O)N[C@@H](C(C)C)C(=O)N[C@@H](CCC(=O)O)C(=O)N[C@@H](CCCNC(=N)N)C(=O)N[C@@H](Cc2ccccc2)C(=O)N1)C(C)(C)C)C1CCCCC1)C(N)=O` [Compound R3194, [cyclo(1,6)]Ac-K-V-E-R-F-D-(N-Me)D-Tbg-Y-azaTrp-E-Y-P-Chg-(Lys-C16)-NH2], the IC50 in data set [4] was 15.5 nM.
As for `CCC[C@H](NC(C)=O)C(=O)N[C@@H](CCC)C(=O)N[C@@H](Cc1ccc(O)cc1)C(=O)N[C@@H](CCC(=O)O)C(=O)N[C@@H](CC(N)=O)C(=O)N[C@H](C(=O)N[C@@H](Cc1ccc(O)cc1)C(=O)N[C@@H](Cc1c[nH]c2ncccc12)C(=O)N[C@@H](CCC(=O)O)C(=O)N[C@@H](Cc1ccc(O)cc1)C(=O)N1CCC[C@H]1C(=O)N[C@H](C(=O)N[C@@H](CCC)C(=O)N[C@@H](CCCCNC(=O)CCCCCNC(=O)CCC1=C(C)C2=Cc3ccc(-c4ccc(OC)cc4)n3[B-](F)(F)[N+]2=C1C)C(N)=O)C1CCCCC1)C(C)(C)C` [Compound R3076, Ac-Nvl-Nvl-Y-E-N-Tbg-Y-azaTrp-E-Y-P-Chg-Nvl-K-(BODIPY-TMR-X) NH2], the IC50 in data set [1] stood at 297 nM. For the same molecule, the dissociation constant Kd in [11] is 8.07 nM.
Consider `CCC[C@H](NC(=O)[C@@H](NC(=O)[C@@H]1CCCN1C(=O)[C@H](Cc1ccc(O)cc1)NC(=O)[C@H](CCC(=O)O)NC(=O)[C@H](Cc1c[nH]c2ncccc12)NC(=O)[C@H](Cc1ccc(O)cc1)NC(=O)[C@@H](NC(=O)[C@H](CC(=O)O)NC(=O)[C@@H]1CSCc2cccc(c2)CSC[C@H](NC(C)=O)C(=O)N[C@@H](C(C)C)C(=O)N[C@@H](CCC(=O)O)C(=O)N[C@@H](CCCNC(=N)N)C(=O)N[C@@H](Cc2ccccc2)C(=O)N1)C(C)(C)C)C1CCCCC1)C(=O)O` [Compound R3201, [mXylyl(1,6)]Ac-C-V-E-R-F-C-D-Tbg-Y-azaTrp-E-Y-P-Chg-Nvl], for which, in [10], the “inhibitory activity in ex vivo hemolysis assays (in words)” value is “very little inhibitory activity” and the “binding to rat C5 (in words)” value is listed as “do not bind”.
With `CC(=O)N[C@H]1CCCCNC(=O)C[C@@H](C(=O)N(C)[C@@H](CC(=O)O)C(=O)N[C@H](C(=O)N[C@@H](Cc2ccc(O)cc2)C(=O)N[C@@H](Cc2c[nH]c3ncccc23)C(=O)N[C@@H](CCC(=O)O)C(=O)N[C@@H](Cc2ccc(O)cc2)C(=O)N2CCC[C@H]2C(=O)N[C@H](C(=O)N[C@@H](CCCCN)C(N)=O)C2CCCCC2)C(C)(C)C)NC(=O)[C@H](Cc2ccccc2)NC(=O)[C@H](CCCNC(=N)N)NC(=O)[C@H](CCC(=O)O)NC(=O)[C@H](C(C)C)NC1=O` [Compound R3192, [cyclo(1,6)]Ac-K-V-E-R-F-D-(N-Me)D-Tbg-Y-azaTrp-E-Y-P-Chg-K-NH2], in data set [4], the IC50 worked out at 1.5 nM.

A word on the IC50: it is the concentration that gives 50% inhibition. As usually defined, the AUC(0-inf) is total exposure, with the tail of the curve extrapolated. Low values mean low exposure, high ones high exposure. The term Vd denotes a proportionality between amount in the body and measured concentration, not a real space. A higher Vd goes with extensive tissue distribution. The clearance is a measure of how efficiently the substance is removed, as volume per time. Read a low clearance as inefficient removal. For orientation: half-life means the time needed for the level to fall by half in the phase considered. As usually defined, the Kd is a measure of binding affinity in units of concentration.
